Assay results reported in patent publication EP0052361A1, “Novel 16-membered macrolide compounds” (SANRAKU-OCEAN CO., LTD., priority 1980, dated 1982).
Values after ≈ are worked out from the molar mass of the structure shown. Read-outs that look alike come from different tables or passages of the source.

What was measured:
[1] = system: Bacillus subtilis NRRL B-558; assay: MIC by tube dilution method in brain heart infusion broth; type: cell-based
Description: (§1) The minimum growth inhibitory concentrations (MIC) of the compounds (I) against various microorganisms were measured by a tube dilution method in a brain heart infusion broth (pH 7.5) as a medium.

[2] = system: Klebsiella pneumoniae PCI602; assay: as above; type: cell-based
Description: as §1

[3] = system: Staphylococcus aureus 209P; assay: as above; type: cell-based
Description: as §1

[4] = system: Staphylococcus aureus MS9861; assay: as above; type: cell-based
Description: as §1

[5] = system: Corynebacterium bovis 1810; assay: as above; type: cell-based
Description: as §1

Escherichia coli NIHJ = assay: as above; type: cell-based
Description: as §1

[6] = system: Mycoplasma gallisepticum KP-13; assay: as above; type: cell-based; conditions: Mycoplasmoides gallisepticum
Description: as §1

Sartina lutea PCI 1001 = assay: as above; type: cell-based
Description: as §1

[7] = system: Shigella dysenteriae JS 11910; assay: as above; type: cell-based; conditions: JS11910, pH 7.5, read-out: Minimum growth inhibitory concentration
Description: as §1

[8] = system: Staphylococcus aureus MS10225; assay: as above; type: cell-based
Description: as §1

[9] = Stability on standing at room temperature; type: physicochemical; conditions: left to stand at room temperature for one month
Description: Stable even when left to stand at room temperature for one month.

[10] = set-up: species or system mice; conditions: mouse, in vivo, po
Description: • (2) Concentration in the blood • (2-1) The concentration of the antibiotic YT-3927 of formula (I-a) in the blood was measured by bioassay with […] lutea using mice. […] Then, periodically, the concentration of the antibiotic YT-3927 in the blood was measured. The peak of the blood concentration was noted 1.5 to 2 hours after the administration, and at the peak, the concentration was […]. In contrast, in the same experiment with tylosin, the peak was noted 1.5 to 2 hours later, but the concentration was less than one-fifth of that of the antibiotic YT-3927. • (2-2) The concentration of each of the antibiotic YT-3927 derivatives of formula (I-b) in the blood was measured by bioassay with […] lutea using mice. […] The concentration of the derivative (I-b) in the blood was periodically measured. The concentration of each of the compounds (I-b) 2 hours after the administration is shown in Table 3. [formula] • (3) Toxicity

[11] = Bacillus subtilis, NRRLB558, pH 7.5, read-out: Antimicrobial activity (MIC) Bacillus subtilis NRRL B558
[12] = Klebsiella pneumoniae, PCI602, pH 7.5, read-out: Antimicrobial activity (MIC) Klebsiella pneumonae PCI602
[13] = Staphylococcus aureus, 209P, pH 7.5, read-out: Antimicrobial activity (MIC) Staphylococcus aureus 209P
[14] = MS9861, pH 7.5, read-out: Antimicrobial activity (MIC) Staphylococcus aureus MS9861

Compound	MIC [1, 11]	MIC [2, 12]	MIC [3, 13]	MIC [4, 14]	further results
CCC1OC(=O)CC(O)C(C)C(OC2OC(C)C(OC3CC(C)(O)C(OC(=O)C(O)c4ccccc4)C(C)O3)C(N(C)C)C2O)C(CC=O)CC(C)C(=O)C=CC(C)=CC1C (centres unmarked)	1.6 µg/mL (≈ 1.86 µM)	3.1 µg/mL (≈ 3.6 µM)	< 0.2 µg/mL	1.6 µg/mL (≈ 1.86 µM)	
CCC1OC(=O)CC(O)C(C)C(OC2OC(C)C(OC3CC(C)(O)C(OC(=O)C(OC(C)=O)c4ccccc4)C(C)O3)C(N(C)C)C2O)C(CC=O)CC(C)C(=O)/C=C/C(C)=C/C1C (centres unmarked)	0.8 µg/mL (≈ 0.887 µM)	25 µg/mL (≈ 27.7 µM)	0.8 µg/mL (≈ 0.887 µM)	3.1 µg/mL (≈ 3.44 µM)	
CCC1OC(=O)CC(O)C(C)C(OC2OC(C)C(OC3CC(C)(O)C(OC(=O)Nc4ccccc4)C(C)O3)C(N(C)C)C2O)C(CC=O)CC(C)C(=O)/C=C/C(C)=C/C1C (centres unmarked)	0.8 µg/mL (≈ 0.947 µM)	6.3 µg/mL (≈ 7.46 µM)	0.8 µg/mL (≈ 0.947 µM)	3.1 µg/mL (≈ 3.67 µM)	
CCC1OC(=O)CC(O)C(C)C(OC2OC(C)C(OC3CC(C)(O)C(OC(=O)Cc4cccs4)C(C)O3)C(N(C)C)C2O)C(CC=O)CC(C)C(=O)C=CC(C)=CC1C (centres unmarked)	0.4 µg/mL (≈ 0.471 µM)	3.1 µg/mL (≈ 3.65 µM)	0.2 µg/mL (≈ 0.235 µM)	1.6 µg/mL (≈ 1.88 µM)	
CCC1OC(=O)CC(O)C(C)C(OC2OC(C)C(OC3CC(C)(O)C(OC4CCCCO4)C(C)O3)C(N(C)C)C2O)C(CC=O)CC(C)C(=O)/C=C/C(C)=C/C1C (centres unmarked)	0.4 µg/mL (≈ 0.494 µM)	3.1 µg/mL (≈ 3.83 µM)	1.6 µg/mL (≈ 1.98 µM)	3.1 µg/mL (≈ 3.83 µM)	
CCC1OC(=O)CC(O)C(C)C(OC2OC(C)C(OC3CC(C)(O)C(O)C(C)O3)C(N(C)C)C2O)C(CC=O)CC(C)C(=O)C=CC(C)=CC1C (centres unmarked) [Antibiotic YT-3927, antibiotic YT-3927]	0.4 µg/mL (≈ 0.551 µM)	3.1 µg/mL (≈ 4.27 µM)	0.4 µg/mL (≈ 0.551 µM)	3.1 µg/mL (≈ 4.27 µM)	MIC ([1]; Bacillus subtilis, NRRLB558, pH 7.5, read-out: Minimum growth inhibitory concentration): 0.39 µg/mL (≈ 0.537 µM); MIC ([5]; Corynebacterium bovis, 1810, pH 7.5, read-out: Minimum growth inhibitory concentration): 0.39 µg/mL (≈ 0.537 µM); MIC (Escherichia coli NIHJ; Escherichia coli, pH 7.5, read-out: Minimum growth inhibitory concentration): 25 µg/mL (≈ 34.4 µM); MIC ([2]; Klebsiella pneumoniae, PCI602, pH 7.5, read-out: Minimum growth inhibitory concentration): 3.12 µg/mL (≈ 4.3 µM); MIC ([6]; KP13, pH 7.5, read-out: Minimum growth inhibitory concentration): 0.02 µg/mL (≈ 0.0276 µM); MIC (Sartina lutea PCI 1001; pH 7.5, read-out: Minimum growth inhibitory concentration): < 0.2 µg/mL; MIC [7]: 1.56 µg/mL (≈ 2.15 µM); MIC ([3]; Staphylococcus aureus, 209P, pH 7.5, read-out: Minimum growth inhibitory concentration): 0.39 µg/mL (≈ 0.537 µM); MIC ([8]; Staphylococcus aureus, MS10225, pH 7.5, read-out: Minimum growth inhibitory concentration): 0.78 µg/mL (≈ 1.07 µM); Stability [9]: Stable
CCC1OC(=O)CC(OC(C)=O)C(C)C(OC2OC(C)C(OC3CC(C)(OC(C)=O)C(OC(C)=O)C(C)O3)C(N(C)C)C2O)C(CC=O)CC(C)C(=O)C=CC(C)=CC1C (centres unmarked) [R1=COCH3; R2=COCH3; YR3=COCH3, 3,3",4"-triacetyl YT-3927]	0.4 µg/mL (≈ 0.469 µM)	100 µg/mL (≈ 117 µM)	1.6 µg/mL (≈ 1.88 µM)	3.1 µg/mL (≈ 3.64 µM)	
CCC1OC(=O)CC(OC(C)=O)C(C)C(OC2OC(C)C(OC3CC(C)(O)C(OC(=O)CC(C)C)C(C)O3)C(N(C)C)C2O)C(CC=O)CC(C)C(=O)C=CC(C)=CC1C (centres unmarked) [R1=COCH3; R2=H; YR3=COCH2CH(CH3)2, 3-acetyl-4"-isovaleryl YT-3927]	0.8 µg/mL (≈ 0.939 µM)	25 µg/mL (≈ 29.3 µM)	0.4 µg/mL (≈ 0.469 µM)	6.3 µg/mL (≈ 7.39 µM)	
CCC1OC(=O)CC(O)C(C)C(OC2OC(C)C(OC3CC(C)(OC(C)=O)C(OC(=O)CC(C)C)C(C)O3)C(N(C)C)C2O)C(CC=O)CC(C)C(=O)C=CC(C)=CC1C (centres unmarked) [R1=H; R2=COCH3; YR3=COCH2CH(CH3)2]	0.8 µg/mL (≈ 0.939 µM)	25 µg/mL (≈ 29.3 µM)	0.8 µg/mL (≈ 0.939 µM)	1.6 µg/mL (≈ 1.88 µM)	
CCC1OC(=O)CC(O)C(C)C(OC2OC(C)C(OC3CC(C)(O)C(OC(=O)CC(C)C)C(C)O3)C(N(C)C)C2O)C(CC=O)CC(C)C(=O)C=CC(C)=CC1C (centres unmarked) [R1=H; R2=H; YR3=COCH2CH(CH3)2, 4"-isovaleryl YT-3927]	0.4 µg/mL (≈ 0.494 µM)	6.3 µg/mL (≈ 7.78 µM)	0.4 µg/mL (≈ 0.494 µM)	1.6 µg/mL (≈ 1.98 µM)	
CC[C@H]1OC(=O)C[C@@H](O)[C@H](C)[C@@H](O[C@@H]2O[C@H](C)[C@@H](O[C@H]3C[C@@](C)(O)[C@@H](O)[C@H](C)O3)[C@H](N(C)C)[C@H]2O)[C@@H](CC=O)C[C@@H](C)C(=O)/C=C/C(C)=C/[C@@H]1CO[C@@H]1O[C@H](C)[C@@H](O)[C@@H](OC)[C@H]1OC [Tylosin, reference compound]					MIC ([1]; Bacillus subtilis, NRRLB558, Table 2-2, brain heart infusion broth pH 7.5, read-out: Antimicrobial activity (MIC) Bacillus subtilis NRRL B558): 0.8 µg/mL (≈ 0.873 µM); MIC ([1]; NRRLB558, Bacillus subtilis NRRL B-558, brain heart infusion broth pH 7.5, Table 2-1, read-out: Minimum growth inhibitory concentration): 0.78 µg/mL (≈ 0.851 µM); MIC ([5]; Corynebacterium bovis 1810, brain heart infusion broth pH 7.5, read-out: Minimum growth inhibitory concentration): < 0.2 µg/mL; MIC (Escherichia coli NIHJ; Escherichia coli NIHJ, brain heart infusion broth pH 7.5, read-out: Minimum growth inhibitory concentration): 100 µg/mL (≈ 109 µM); MIC ([2]; Klebsiella pneumoniae PCI602, brain heart infusion broth pH 7.5, Table 2-1, read-out: Minimum growth inhibitory concentration): 25 µg/mL (≈ 27.3 µM); MIC ([2]; Klebsiella pneumoniae, PCI602, Table 2-2, brain heart infusion broth pH 7.5, read-out: Antimicrobial activity (MIC) Klebsiella pneumonae PCI602): 25 µg/mL (≈ 27.3 µM); MIC ([6]; KP13, Mycoplasma gallisepticum KP-13, brain heart infusion broth pH 7.5, read-out: Minimum growth inhibitory concentration): 0.02 µg/mL (≈ 0.0218 µM); MIC (Sartina lutea PCI 1001; Sartina lutea PCI 1001, brain heart infusion broth pH 7.5, read-out: Minimum growth inhibitory concentration): < 0.2 µg/mL; MIC [7]: 25 µg/mL (≈ 27.3 µM); MIC ([3]; Staphylococcus aureus 209P, brain heart infusion broth pH 7.5, Table 2-1, read-out: Minimum growth inhibitory concentration): 0.78 µg/mL (≈ 0.851 µM); MIC ([3]; Staphylococcus aureus, 209P, Table 2-2, brain heart infusion broth pH 7.5, read-out: Antimicrobial activity (MIC) Staphylococcus aureus 209P): 0.8 µg/mL (≈ 0.873 µM); MIC ([8]; Staphylococcus aureus MS10225 (resistant to tylosin), brain heart infusion broth pH 7.5, read-out: Minimum growth inhibitory concentration): 3.12 µg/mL (≈ 3.41 µM); MIC ([4]; MS9861, Table 2-2, brain heart infusion broth pH 7.5, read-out: Antimicrobial activity (MIC) Staphylococcus aureus MS9861): 6.3 µg/mL (≈ 6.88 µM); peak concentration in the blood as a fraction of that of the antibiotic YT-3927 [10]: less than one-fifth

More lines, main results first:

MIC [1, 11]	MIC [2, 12]	MIC [3, 13]	MIC [4, 14]	Compound	further results
< 0.2 µg/mL	3.1 µg/mL (≈ 3.49 µM)	0.4 µg/mL (≈ 0.451 µM)	1.6 µg/mL (≈ 1.8 µM)	CCC1OC(=O)CC(O)C(C)C(OC2OC(C)C(OC3CC(C)(OC(C)=O)C(OC(=O)Cc4cccnc4)C(C)O3)C(N(C)C)C2O)C(CC=O)CC(C)C(=O)C=CC(C)=CC1C (centres unmarked)	
0.2 µg/mL (≈ 0.239 µM)	12.5 µg/mL (≈ 15 µM)	0.8 µg/mL (≈ 0.957 µM)	3.1 µg/mL (≈ 3.71 µM)	CCC1OC(=O)CC(O)C(C)C(OC2OC(C)C(OC3CC(C)(O)C(OC(=O)C4CCCCC4)C(C)O3)C(N(C)C)C2O)C(CC=O)CC(C)C(=O)/C=C/C(C)=C/C1C (centres unmarked)	
0.4 µg/mL (≈ 0.456 µM)	> 100 µg/mL	1.6 µg/mL (≈ 1.82 µM)	6.3 µg/mL (≈ 7.17 µM)	CCC1OC(=O)CC(O)C(C)C(OC2OC(C)C(OC3CC(C)(OC(C)=O)C(OC(=O)C4CCCCC4)C(C)O3)C(N(C)C)C2O)C(CC=O)CC(C)C(=O)/C=C/C(C)=C/C1C (centres unmarked)	
0.4 µg/mL (≈ 0.454 µM)	3.1 µg/mL (≈ 3.52 µM)	< 0.2 µg/mL	6.3 µg/mL (≈ 7.16 µM)	CCC1OC(=O)CC(O)C(C)C(OC2OC(C)C(OC3CC(C)(O)C(OS(=O)(=O)c4ccc(C)cc4)C(C)O3)C(N(C)C)C2O)C(CC=O)CC(C)C(=O)/C=C/C(C)=C/C1C (centres unmarked)	
< 0.2 µg/mL	3.1 µg/mL (≈ 3.53 µM)	< 0.2 µg/mL	1.6 µg/mL (≈ 1.82 µM)	CCC1OC(=O)CC(O)C(C)C(OC2OC(C)C(OC3CC(C)(O)C(OC(=O)CSc4ccncc4)C(C)O3)C(N(C)C)C2O)C(CC=O)CC(C)C(=O)C=CC(C)=CC1C (centres unmarked)	
< 0.2 µg/mL	6.3 µg/mL (≈ 6.85 µM)	< 0.2 µg/mL	0.8 µg/mL (≈ 0.87 µM)	CCC1OC(=O)CC(O)C(C)C(OC2OC(C)C(OC3CC(C)(OC(C)=O)C(OC(=O)CSc4ccncc4)C(C)O3)C(N(C)C)C2O)C(CC=O)CC(C)C(=O)C=CC(C)=CC1C (centres unmarked)	
< 0.2 µg/mL	1.6 µg/mL (≈ 1.89 µM)	< 0.2 µg/mL	0.8 µg/mL (≈ 0.947 µM)	CCC1OC(=O)CC(O)C(C)C(OC2OC(C)C(OC3CC(C)(O)C(OC(=O)Cc4cccnc4)C(C)O3)C(N(C)C)C2O)C(CC=O)CC(C)C(=O)C=CC(C)=CC1C (centres unmarked)	
